According to patent US6368831B1, “Treatment of hyperproliferative disorders” (Childrens Hospital Los Angeles, priority 1998, dated 2002):

Experiments:
Format in all cases: cell-based, human
[1] = test system: MCF7/GCS cells; assay: DIMSCAN cytotoxicity assay, MCF7/GCS tet OFF vs tet ON; conditions: 96 hours, P<0.005 at >6 μM HPR, safingol 0-4 μM
Description: We have shown that HPR generates ceramide in neuroblastoma tumor cell lines in a dose- and time-depenent manner (B. Maurer et al., J. Natl. Cancer Inst. (1999)(in press)). Glucosylceramide (GC) is a nontoxic metabolite of ceramide. Ceramide is converted into glucosylceramide by the action of glucosylceramide synthase (GCS). Glucosylceramide synthase (GCS) has been transfected into human MCF7 breast cancer cells in a tetracycline-inducible expression construct in the MCF7/GCS cell line (Y. Liu et al., J. Biol. Chem. 274:1140-46 (1999)). […] We have exposed MCF7/GCS cells to HPR, safingol and HPR+safingol in the absence, and in the presence, of doxycycline.
Methods. MCF7/GCS cells were plated and incubated in RPMI medium with 10% fetal bovine serum and 200 microgram/ml Hygromycin B (tet OFF) for DIMSCAN cytotoxicity assays as previously described. To increase GCS expression, MCF7/GCS cells were also incubated in the above medium with 3 microgram/ml doxycycline (tet ON) for three days prior to replating them for DIMSCAN cytotoxicity assay. DIMSCAN assays with doxycycline-induced (tet ON) cells also included 3 microgram/ml doxycycline in the medium. Both “tet OFF” and “tet ON” MCF7/GCS cells were exposed to HPR, safingol and HPR+safingol (3:1 molar ratio) for 96 hours and assayed for survival fraction by DIMSCAN as previously described.

[2] = test system: CHLA-90 neuroblastoma cell line; assay: Ceramide assay, CHLA-90; conditions: CHLA-90 (drug resistant); 10 μM fenretinide; 20% O2
Protocol: (§1) The ceramide assay is carried out as follows. 500,000 neuroblastoma cells/well are replicate plated in six-well tissue culture plates and allowed to attach overnight. Tritiated (3H)-palmitic acid (a lipid precursor) is added to 1 microcure/cc and fenretinide added to a final concentration of 10 uM. Control cells receive tritiated label but no drug. At the indicated time, cells are harvested from triplicate wells, washed, and lipids extracted with methanol, acetic acid, water, and chloroform. The organic layer (containing the tritium label incorporated into lipids) is isolated and dried down by a nitrogen stream. The lipid sample is dissolved in chloroform: methanol and 10% of each sample assayed to estimate the total tritium in the lipid sample. The lipids in sample fractions, together with unlabeled ceramide standards, are then separated by thin layer chromatography and the plates developed by iodine vapor. The region of the plate corresponding to the ceramide standard is scraped and the tritium of the co-migrating sample ceramide is measured. Total sample ceramide is then expressed as percent tritium label in ceramide versus tritium in total lipid. […]

[3] = test system: SMS-LHN neuroblastoma cell line; assay: Ceramide assay, SMS-LHN; conditions: SMS-LHN (drug sensitive); 10 μM fenretinide; 20% O2
Protocol: as §1

## CC1=C(/C=C/C(C)=C/C=C/C(C)=C/C(=O)Nc2ccc(O)cc2)C(C)(C)CCC1 [HPR, all-trans-N-(4-hydroxyphenyl)retinamide]
[1]
  change of cytotoxicity in tet ON (doxycycline, GCS induced) compared to tet OFF cells: significantly decreased
[2]
  ceramide generation: generate ceramide
[3]
  ceramide generation: generate ceramide
